In patent publication US5516525A, “Vitamin D derivative feed compositions and methods of use” (University of Georgia Research Foundation, Inc., priority 1994, dated 1996):
Where two headings read alike, the source gives them in different places.

What was measured:
tibial dyschondroplasia [1] = conditions: cited from earlier work; for tibial dyschondroplasia (effect of dietary factor): chickens, dietary level; for incidence of tibial dyschondroplasia: 20 ng/day, Edwards, J. Nutr. 114:1001 (1984)
tibial dyschondroplasia [2] = assay type: in vivo, chicken (Peterson X Arbor Acre cockerels); conditions: for #3/total / #3/No. / % N2 + 3 / % N3 / % #3: D3 […], derivatives 10 μg/kg feed; for incidence and severity of tibial dyschondroplasia: in words, Example 2; for #3/No. / % N2 + 3 / % N3: Study 3
Procedure: Deep irregularities are apparent.
(§1) The basal diet used is described above in Table 2. Disulfiram was added to the basal diet of some chickens as indicated in Table 10 at a level of 30 mg/kg of feed.
(§2) After the tibia was scored for incidence and severity of tibial dyschondroplasia, the left tibia was removed for a bone ash determination on the fat-free dried bone.

[3] = 16-day body weight and gain:feed (Example 2); assay type: in vivo, chicken (Peterson X Arbor Acre cockerels); conditions: D3 […], derivatives 10 μg/kg feed
Procedure: The basal diet used is described above in Table 2. Disulfiram was added to the basal diet of some chickens as indicated in Table 10 at a level of 30 mg/kg of feed. […]

^47 Ca retention = experiment: 47Ca absorption and retention (Example 2); assay type: in vivo, chicken (Peterson X Arbor Acre cockerels); design: key to ^47 Ca intercept / Ca^47 Ret.: % of administered 47Ca retained (y-intercept of retention-vs-days plot); conditions: for ^47 Ca intercept / ^47 Ca slope: Study 2; for ^47 Ca intercept / ^47 Ca slope / Ca^47 Ret. / Ca^47 slope: D3 […], derivatives 10 μg/kg feed; for Ca^47 Ret. / Ca^47 slope: Study 3
Procedure: Absorption and retention of dietary calcium was measured by orally dosing chicks with ^47 Ca and then measuring the total body radioactive count, as described in Suso and Edwards, "A Study of Techniques for Measuring ^65 Zn Absorption and Biological Half-life in the Chicken," Poult. Sci. 47:991-999 (1968). Specifically, ten seven day old birds in one pen under the indicated dietary treatments were dosed orally with 0.5 milliliter of water solution containing 0.5 microcuries of ^47 Ca and 0.1 to 1.0 micrograms of calcium. The total body radioactive content of the individual chickens was determined immediately following dosing, and also on days 7, 9, 12 and 14 following dosing. A plot of percent administered ^47 Ca which was retained versus number of days yields a line which has a slope corresponding to the half-life of the radioactive calcium in the chicken, and a y-intercept that corresponds to the amount of calcium absorbed by the chicken. Effect of vitamin D3 derivatives on Tibial Dyschondroplasia.

bone ash [4] = experiment: bone ash of left tibia (Example 1); conditions: in words
Excerpt: The left tibia was removed for bone ash determination on the fat-free bone.

[5] = 9-day body weight, feed consumption and gain:feed (Example 1); conditions: in words, Example 1
Procedure: Newly hatched Petersen X Arbor Acre cockerels obtained from a commercial hatchery were used. Animals were housed in electrically heated Petersime battery brooders with wire-mesh floors located in a room in which the temperature was maintained at 22° C., fluorescent lights were on 24 hours each day in the room and the cages, and sunlight was present during the day from large windows. No attempt was made to limit the natural production of vitamin D3. Feed and water were available to the chickens at all times.
Ten newly hatched birds were randomly placed in each section of the Petersime batteries until the birds were nine days old. The measurements described below were calculated on a pen basis; all statistical analyses were conducted on pen averages. Blood samples were taken by cardiac puncture with heparinized syringes from one randomly chosen bird from each pen on the ninth day before weighing the birds.
At nine days of age, pen body weights were obtained for all birds and their feed consumption was recorded. […] Briefly, using a three week old chicken as the reference animal, a score of zero indicates normal cartilage which is narrow with little irregularities. […] Deep irregularities are apparent. A score of three indicates a large mass of cartilage in the proximal end of the tibia. The birds were also scored for phosphorus deficient rickets at the same time they were scored for tibial dyschondroplasia. Chickens which had normal proliferating prehypertrophied zone and a lengthened metaphyseal primary spongiosa were classified as phosphorus deficient rickets. The left tibia was removed for bone ash determination on the fat-free bone.

calcium = conditions: in vivo; cited from earlier work
bone ash [6] = experiment: bone ash (Example 2); assay type: in vivo, chicken (Peterson X Arbor Acre cockerels); conditions: in words
Procedure: as §1, §2

[7] = Study 2, with disulfiram 30 mg/kg feed
[8] = Study 1, with disulfiram 30 mg/kg feed
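Throughout, for #3/No.: score 3 means a large cartilage mass in the proximal tibia.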
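Throughout, for #3/total: score 3 means a large cartilage mass in the proximal tibia.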
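Throughout, for % #3: score 3 means a large cartilage mass in the proximal tibia.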
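Throughout, for % N3: score 3 means a large cartilage mass in the proximal tibia.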

Molecule	tibial dyschondroplasia (effect of dietary factor) (tibial dyschondroplasia [1])	#3/total (tibial dyschondroplasia [2]; [7])	incidence and severity of tibial dyschondroplasia (tibial dyschondroplasia [2])	16 Day wt. [3, 8]	Gain:Feed [3, 8]	16 day wt [3, 7]	Gain:Feed [3, 7]	^47 Ca intercept (^47 Ca retention; with disulfiram 30 mg/kg feed)	^47 Ca slope (^47 Ca retention; with disulfiram 30 mg/kg feed)	#3/No. (tibial dyschondroplasia [2])	% N2 + 3 (tibial dyschondroplasia [2]) [%]	% N3 (tibial dyschondroplasia [2]) [%]	#3/total (tibial dyschondroplasia [2]; Study 4)	% #3 (tibial dyschondroplasia [2]; Study 4) [%]	16 Day Wt. ([3]; Study 3)	Gain/feed ([3]; Study 3)	16 Day wt. ([3]; Study 4)	Gain/feed ([3]; Study 4)	Ca^47 Ret. (^47 Ca retention)	Ca^47 slope (^47 Ca retention)	further results
calcium	retards development of the lesion																				
chloride	increased the incidence of the abnormality																				
C=C1CC[C@H](O)C/C1=C/C=C1\CCC[C@]2(C)[C@@H]([C@H](C)CCCC(C)(C)O)CC[C@@H]12 [25-OHD3, 25-hydroxycholecalciferol]		11/28	reduced the incidence of tibial dyschondroplasia	398	.706	395	.728	74	-1.67												#3/total (tibial dyschondroplasia [2]; Study 1, basal diet): 1/28; #3/total (tibial dyschondroplasia [2]; Study 2, basal diet): 7/30; 16 Day wt. ([3]; Study 1, basal diet): 395; Gain:Feed ([3]; Study 1, basal diet): .667; 16 day wt ([3]; Study 2, basal diet): 392; Gain:Feed ([3]; Study 2, basal diet): .713; ^47 Ca intercept (^47 Ca retention; basal diet): 72
C=C1/C(=C\C=C2/CCC[C@]3(C)[C@@H]([C@H](C)CCCC(C)C)CC[C@@H]23)C[C@@H](O)C[C@@H]1O [1-OHD3, 1-hydroxycholecalciferol]			significant reduction in the incidence of tibial dyschondroplasia							3/60	17	5	8/57	15	423	.661	372	.655	75	-.95	bone ash (bone ash [4]): increased; nine day weight [5]: increased
CCN(CC)C(=S)SSC(=S)N(CC)CC [Disulfiram, bis(diethylthiocarbamyl)disulfide, reference compound]		14/28		433	.750	394	.671	73	-1.59												#3/total (tibial dyschondroplasia [2]; [8]): 16/30; calcium absorption / loss (calcium): lowers the absorption of calcium
magnesium	decrease the incidence of tibial dyschondroplasia																				
C=C1/C(=C\C=C2/CCC[C@]3(C)[C@@H]([C@H](C)CCC(O)C(C)(C)O)CC[C@@H]23)C[C@@H](O)C[C@@H]1O (stereo partly shown) [1,24,25-(OH)2 D3, 1,24,25-trihydroxycholecalciferol]			significant reduction in the incidence of tibial dyschondroplasia							6/60	22	10	8/57	14	428	.688	376	.681	76	-.77	
CN(C)C(=S)SSC(=S)N(C)C [thiruram, bis(dimethylthiocarbamyl)disulfide, reference compound]	causes tibial dyschondroplasia																				calcium absorption / loss (calcium): rapid loss of intramuscularly-injected calcium
C=C1/C(=C\C=C2/CCC[C@]3(C)[C@@H]([C@H](C)CCCC(C)(C)O)CC[C@@H]23)C[C@@H](O)C[C@@H]1O [1,25-(OH)2 D3, 1,25-dihydroxycholecalciferol]		6/30		426	.701	377	.684	70	-2.11	5/58	16	9	4/52	8	421	.66	355	.652	78	-.72	#3/total (tibial dyschondroplasia [2]; Study 1, basal diet): 1/29; #3/total (tibial dyschondroplasia [2]; [8]): 4/30; #3/total (tibial dyschondroplasia [2]; Study 2, basal diet): 2/30; bone ash (bone ash [6]): increases bone ash; incidence of tibial dyschondroplasia (tibial dyschondroplasia [1]): no effect on the incidence of tibial dyschondroplasia; 16 Day wt. ([3]; Study 1, basal diet): 421; Gain:Feed ([3]; Study 1, basal diet): .670; 16 day wt ([3]; Study 2, basal diet): 361; Gain:Feed ([3]; Study 2, basal diet): .661; bone ash (bone ash [4]): increased; nine day weight [5]: increased; ^47 Ca intercept (^47 Ca retention; basal diet): 84; ^47 Ca slope (^47 Ca retention; basal diet): -2.85; dietary ^47 Ca absorbed (^47 Ca retention; in words, Example 2): significantly more dietary ^47 Ca absorbed; half-life, or retention, of the calcium (^47 Ca retention; in words, Example 2): increasing the half-life
C=C1CC[C@H](O)C/C1=C/C=C1\CCC[C@]2(C)[C@@H]([C@H](C)CCC(O)C(C)(C)O)CC[C@@H]12 (stereo partly shown) [24,25-(OH)2 D3, 24,25-dihydroxycholecalciferol, reference compound]			not effective in preventing the development of tibial dyschondroplasia							17/59	53	29	25/56	46	424	.696	351	.663	67	-.77	incidence of tibial dyschondroplasia (tibial dyschondroplasia [1]): no effect on the incidence of tibial dyschondroplasia; bone ash (bone ash [4]): no effect; nine day weight [5]: no effect
[2H]C([2H])([2H])C(O)(CCC[C@@H](C)[C@H]1CC[C@H]2/C(=C/C=C3/C[C@@H](O)C[C@H](O)C3=C)CCC[C@]12C)C([2H])([2H])[2H] [1,25-(OH)2-26,27[^1 H]6 D3, 1,25-dihydroxy-26,27-hexadeuterocholecalciferol]			significant reduction in the incidence of tibial dyschondroplasia							0/60	8	0	4/58	7	422	.687	360	.646	80	.15	
C=C1CC[C@H](O)C/C1=C/C=C1\CCC[C@]2(C)[C@@H]([C@H](C)CCCC(C)C)CC[C@@H]12 [D3, cholecalciferol, reference compound]		12/30		432	.708	374	.666	72	-1.97	13/59	34	22	20/58	35	434	.709	383	.701	75	-1.13	#3/total (tibial dyschondroplasia [2]; Study 1, basal diet): 4/27; #3/total (tibial dyschondroplasia [2]; [8]): 9/27; #3/total (tibial dyschondroplasia [2]; Study 2, basal diet): 5/29; 16 Day wt. ([3]; Study 1, basal diet): 451; Gain:Feed ([3]; Study 1, basal diet): .734; 16 day wt ([3]; Study 2, basal diet): 368; Gain:Feed ([3]; Study 2, basal diet): .647; ^47 Ca intercept (^47 Ca retention; basal diet): 77; ^47 Ca slope (^47 Ca retention; basal diet): -1.88
C=C1/C(=C\C=C2/CCC[C@]3(C)[C@@H]([C@H](C)CC[C@@H](F)C(C)(C)O)CC[C@@H]23)C[C@@H](O)C[C@@H]1O [1,25-(OH)2-24R-FD3, 1,25-dihydroxy-24-fluorocholecalciferol]			significant reduction in the incidence of tibial dyschondroplasia							3/60	15	5	9/56	16	413	.663	360	.661	72	-.47	
